Experimental data reported in ChEMBL document CHEMBL4811294, “Synthesis and biological activity of conformationally restricted indole-based inhibitors of neurotropic alphavirus replication: Generation of a three-dimensional pharmacophore” (Bioorg Med Chem Lett, 2021).

Assays:
[1] = Cytotoxicity against golden hamster BSR-T7 cells assessed as reduction in cell viability measured after 18 to 24 hrs by MTT assay; format: cell-based, Mesocricetus auratus, BSR-T7/5
[2] = test system: Western equine encephalitis virus; assay: Antiviral activity against Western equine encephalitis virus infected in BSR-T7 cells assessed as inhibition of viral genome replicon replication measured after 18 to 24 hrs by luciferase assay; format: functional, organism-based; details: BSR-T7/5
[3] = Antiviral activity against FMV infected in human BE2C cells assessed as reduction in virus-induced cytopathicity at 25 uM relative to control
[4] = Antiviral activity against FMV infected in human BE2C cells assessed as reduction in virus-induced cytopathicity at 5 uM relative to control
[5] = Antiviral activity against FMV infected in human BE2C cells assessed as reduction in virus-induced cytopathicity by measuring cell viability at 5 uM (reference value: 19.6 +/-4%)
[6] = Antiviral activity against FMV infected in human BE2C cells assessed as reduction in virus-induced cytopathicity by measuring cell viability at 25 uM (reference value: 19.6 +/-4%)

| Structure (SMILES) | IC50 [2] [µM] | CC50 ([1]; bsr-t7/5, time 18-24 hrs) [µM] | also measured |
| --- | --- | --- | --- |
| O=C(NCc1ccccc1)C1CCN(C(=O)c2cc3ccccc3n2Cc2ccc(Cl)cc2)CC1 | 30.6 | – | CC50 ([1]; BSR-T7 cells, time 18-24 hrs): > 100 µM |
| O=C(NCCc1ccncc1)C1CCN(C(=O)c2cc3ccccc3n2Cc2ccc(Cl)cc2)CC1 | – | – | fold change (FC) [3]: 2 |
| O=C(c1cc2ccccc2n1Cc1ccc(Cl)cc1)N1CCC(/C=C/CCc2ccncc2)CC1 | > 50 | – | – |
| Cc1cccc2cc(C(=O)N3CCC(C(=O)NCc4ccccc4)CC3)n(Cc3ccc(Cl)cc3)c12 | 61 | > 100 | – |
| O=C(CC1CCN(C(=O)c2cc3ccccc3n2Cc2ccc(Cl)cc2)CC1)NCc1ccncc1 | 24.7 | 77.3 | – |
| O=C(NCCCc1ccccc1)C1CCN(C(=O)c2cc3ccccc3n2Cc2ccc(Cl)cc2)CC1 | > 100 | > 50 | – |
| O=C(c1cc2ccccc2n1Cc1ccc(Cl)cc1)N1CCC(/C=C\CCc2ccncc2)CC1 | > 50 | > 50 | – |
| O=C(c1cc2ccccc2n1Cc1ccc(Cl)cc1)N1CCC(C(=O)N2Cc3ccccc3C2)CC1 | > 100 | > 100 | – |
| O=C(NCCc1ccncc1)C1=CCN(C(=O)c2cc3ccccc3n2Cc2ccc(Cl)cc2)CC1 | 3.9 | 74.2 | – |
| O=C(NCC1CCc2ccccc21)C1CCN(C(=O)c2cc3ccccc3n2Cc2ccc(Cl)cc2)CC1 (stereo not drawn) | 7.1 | > 100 | – |
| Cc1c(C(=O)N2CCC(C(=O)NCc3ccccc3)CC2)n(Cc2ccc(Cl)cc2)c2ccccc12 | > 100 | > 100 | – |
| O=C(c1cc2ccccc2n1Cc1ccc(Cl)cc1)N1CCC(C(=O)N2CCc3ccccc32)CC1 | > 100 | > 100 | – |
| O=C(NCCc1ccncc1)[C@H]1[C@@H]2CCN(C(=O)c3cc4ccccc4n3Cc3ccc(Cl)cc3)C[C@@H]21 | 24.6 | > 100 | – |
| O=C(NCCc1ccncc1)N1CCN(C(=O)c2cc3ccccc3n2Cc2ccc(Cl)cc2)CC1 | 24.4 | 78 | – |
| CN(CCc1ccncc1)C(=O)[C@@H]1C[C@H]2CC[C@@H](C1)N2C(=O)c1cc2ccccc2n1Cc1ccc(Cl)cc1 | 0.96 | 50.9 | – |
| O=C(NCCc1ccncc1)C1CC2(C1)CN(C(=O)c1cc3ccccc3n1Cc1ccc(Cl)cc1)C2 | 10.9 | 56.5 | – |
| O=C(NCCc1ccncc1)C1CCCN(C(=O)c2cc3ccccc3n2Cc2ccc(Cl)cc2)CC1 (stereo not drawn) | 0.49 | 41.1 | fold change (FC) [4]: 2; Activity [5]: 36.1%; Activity [6]: 22.9% |
| O=C(c1cc2ccccc2n1Cc1ccc(Cl)cc1)N1CCC(C(=O)N2CCC(c3ccccc3)C2)CC1 (stereo not drawn) | > 100 | > 100 | – |
| O=C(CCc1ccncc1)NC1CCN(C(=O)c2cc3ccccc3n2Cc2ccc(Cl)cc2)CC1 | 17.6 | 66.7 | – |
| O=C(NC1Cc2ccccc2C1)C1CCN(C(=O)c2cc3ccccc3n2Cc2ccc(Cl)cc2)CC1 | > 100 | > 100 | – |
| O=C(NCC1Cc2ccccc2C1)C1CCN(C(=O)c2cc3ccccc3n2Cc2ccc(Cl)cc2)CC1 | 0.53 | > 100 | – |
| O=C(c1cc2ccccc2n1Cc1ccc(Cl)cc1)N1CC[C@H]2C(=O)N(CCc3ccncc3)C[C@H]2C1 | 24.4 | 61 | – |
| O=C(c1cc2ccccc2n1Cc1ccc(Cl)cc1)N1CCC(C(=O)N2CCCC2c2ccccc2)CC1 (stereo not drawn) | > 100 | > 100 | – |
| O=C(NC1CCc2ccccc21)C1CCN(C(=O)c2cc3ccccc3n2Cc2ccc(Cl)cc2)CC1 (stereo not drawn) | > 100 | > 100 | – |
| CC1(C(=O)NCCc2ccncc2)CCN(C(=O)c2cc3ccccc3n2Cc2ccc(Cl)cc2)CC1 | > 50 | > 50 | – |
| CC(NC(=O)C1CCN(C(=O)c2cc3ccccc3n2Cc2ccc(Cl)cc2)CC1)C1Cc2ccccc2C1 (racemic) | 1.7 | > 100 | – |
